Consider two molecules from patent publication US20220265691A1, “METHODS FOR USE OF GENE EXPRESSION AS AN INDICATOR OF E-SELECTIN INHIBITOR EFFICACY AND CLINICAL OUTCOME FOR MULTIPLE TUMOR TYPES” (GLYCOMIMETICS, INC., priority 2019, published 2022).

Assay [1] relates to relapsed or refractory AML. The assay can be described thus: Phase I/II trial of Formula I in combination with chemotherapy for AML. In kind it is in vivo, human. The note with it: for overall survival (OS): Formula I plus chemotherapy. As for the experimental part: Phase I/II trial of Formula I in combination with chemotherapy for AML: A specific glycomimetic antagonist of E-selectin (Formula I) was rationally designed based on the bioactive conformation of sialyl Le^a/x in the binding site of E-selectin. Treatment of AML relapsed/refractory patients with the compound of Formula I and chemotherapy were evaluated for response. In a Phase I trial, 19 patients were treated with the compound of Formula I twice a day at 5 mg/kg (n=6), 10 mg/kg (n=7), and 20 mg/kg doses (n=6), in combination with induction MEC (mitoxantrone, epotoside, and cytarabine) chemotherapy. In a Phase II trial, the treatment regimen comprised one 10 mg/kg dose of the compound of Formula I 24 hours prior to chemotherapy, then twice daily 10 mg/kg doses of the compound of Formula I throughout either MEC (mitoxantrone, etoposide, and cytarabine) or 7+3 (cytarabine for 7 days followed by 3 days of daunorubicin, idarubicin or mitoxantrone) chemotherapy up till 48 hours post-chemotherapy. AML blasts from the patients' bone marrow and peripheral blood were isolated, and the expression of E-selectin ligand on the blasts was measured using immunofluorescence. Patient response to treatment was also assessed.

The next assay concerns the target T1, E-selectin (Homo sapiens, UniProt P16581).
T1 construct: fused on or other part: Immunoglobulin (Ig) part fused to E-selectin as a handle for immobilisation
T1 sequence (P16581 22-175 limits assumed): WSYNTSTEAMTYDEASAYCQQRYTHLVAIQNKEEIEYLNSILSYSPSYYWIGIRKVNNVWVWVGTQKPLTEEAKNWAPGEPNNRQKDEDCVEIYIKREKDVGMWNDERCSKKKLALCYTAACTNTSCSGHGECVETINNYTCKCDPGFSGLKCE
In words: E-Selectin Activity - competitive binding assay (sLea polyacrylamide / immobilized E-selectin/Ig chimera). Particulars: inhibition of sLea conjugate binding to immobilized E-selectin/Ig chimera; read-out: IC50 (E-Selectin Antagonist Activity). As for the experimental part:
The inhibition assay to screen and characterize antagonists of E-selectin is a competitive binding assay, from which IC50 values may be determined. E-selectin/Ig chimera are immobilized in 96 well microtiter plates by incubation at 37° C. for 2 hours. To reduce nonspecific binding, bovine serum albumin is added to each well and incubated at room temperature for 2 hours. The plate is washed and serial dilutions of the test compounds are added to the wells in the presence of conjugates of biotinylated, sLea polyacrylamide with streptavidin/horseradish peroxidase and incubated for 2 hours at room temperature.
To determine the amount of sLe^a bound to immobilized E-selectin after washing, the peroxidase substrate, 3,3′,5,5′ tetramethylbenzidine (TMB) is added. After 3 minutes, the enzyme reaction is stopped by the addition of H3PO4, and the absorbance of light at a wavelength of 450 nm is determined. The concentration of test compound required to inhibit binding by 50% is determined.

In the case of `CCC1CC(C(=O)NCCNC(=O)CCOCCOCCOCCOCCOCCOCCOCCOCCOCCOCCOCCOC)C[C@@H](O[C@@H]2O[C@@H](CO)[C@H](O)C(O[C@@H](CC3CCCCC3)C(=O)O)C2NC(C)=O)[C@@H]1OC1O[C@@H](C)[C@H](O)C(O)[C@@H]1O` (some centres unmarked) [compound of Formula I], the “overall survival (OS)” value is listed as 12.7 months in assay [1] (patients with greater than 10% of blasts expressing E-selectin ligand (HECA-452; high expressers)) and 5.2 months in assay [1] (patients with less than 10% blasts expressing E-selectin ligand (HECA-452; low expressers)). For the same molecule, the “response rate (CR/CRi)” value in assay [1] (patients with relapsed or refractory AML, compound of Formula I plus chemotherapy) was found to be 41%. Besides, in assay [1] (relapsed or refractory AML, single course of induction, higher than historical controls treated with MEC), the “CR/CRi rate after a single course of induction treatment” value is recorded as 47%.
One may read the IC50 as the concentration that inhibits the measured activity by half. With `CCC1CC(C(=O)NCCNC(=O)c2cn(CC(COS(=O)(=O)O)(COS(=O)(=O)O)COS(=O)(=O)O)nn2)C[C@@H](O[C@@H]2OC(CO)[C@H](O)C(O[C@@H](CC3CCCCC3)C(=O)O)C2NC(=O)Cn2cc(COCCOCCOCCOCCOCc3cn(CC(=O)NC4C(O[C@@H](CC5CCCCC5)C(=O)O)[C@@H](O)C(CO)O[C@H]4O[C@@H]4CC(C(=O)NCCNC(=O)c5cn(CC(COS(=O)(=O)O)(COS(=O)(=O)O)COS(=O)(=O)O)nn5)CC(CC)C4O[C@@H]4OC(C)[C@@H](O)C(O)C4O)nn3)nn2)C1O[C@@H]1OC(C)[C@@H](O)C(O)C1O` (some centres unmarked) [Compound 206], the IC50 at E-selectin amounted to 1.6 nM.
